# Tested on: MV-4-11 cells
# Test: Gene expression microarray analysis (Affymetrix PrimeView) and GSEA
# Assay type: cell-based, human
# Parameters: RFU PODN (11730768_x_at) / Fold change /veh PODN (11730768_x_at) / RFU LINC00158 (11744669_a_at) / Fold change /veh LINC00158 (11744669_a_at) / RFU DUSP10 (11751237_a_at) / Fold change /veh DUSP10 (11751237_a_at) / RFU ID3 (11757404_x_at) / Fold change /veh ID3 (11757404_x_at) / RFU PLEKHG5 (11737974_s_at) / Fold change /veh PLEKHG5 (11737974_s_at) / RFU LRRC4B (11730491_at) / Fold change /veh LRRC4B (11730491_at) / RFU GIMAP4 (11747438_a_at) / Fold change /veh GIMAP4 (11747438_a_at) / RFU KRT8 (11758183_x_at) / Fold change /veh KRT8 (11758183_x_at) / RFU CNN1 (11734310_a_at) / Fold change /veh CNN1 (11734310_a_at) / RFU VPS37D (11726825_at) / Fold change /veh VPS37D (11726825_at) / RFU C10orf10 (11716522_x_at) / Fold change /veh C10orf10 (11716522_x_at) / RFU KIR2DL2 /// KIR2DL4 /// KIR2DL5A /// KIR2DL5B /// KIR2DS1 /// KIR2DS2 /// KIR2DS3 /// KIR2DS4 /// KIR3DL3 /// KIR3DL3 /// KIR3DS1 (11738374_at) / Fold change /veh KIR2DL2 /// KIR2DL4 /// KIR2DL5A /// KIR2DL5B /// KIR2DS1 /// KIR2DS2 /// KIR2DS3 /// KIR2DS4 /// KIR3DL3 /// KIR3DL3 /// KIR3DS1 (11738374_at) / RFU C1QL1 (11718748_at) / Fold change /veh C1QL1 (11718748_at) / RFU TMPRSS4 (11747572_a_at) / Fold change /veh TMPRSS4 (11747572_a_at) / RFU HAMP (11756126_x_at) / Fold change /veh HAMP (11756126_x_at) / RFU RNFT2 (11725882_a_at) / Fold change /veh RNFT2 (11725882_a_at) / RFU NR4A2 (11747474_a_at) / Fold change /veh NR4A2 (11747474_a_at) / RFU ABCC12 (11746883_a_at) / Fold change /veh ABCC12 (11746883_a_at) / RFU TMEM136 (11760407_x_at) / Fold change /veh TMEM136 (11760407_x_at) / RFU CLDN22 /// WWC2 (11732394_at) / Fold change /veh CLDN22 /// WWC2 (11732394_at) / RFU HLA-DPB1 (11760878_x_at) / Fold change /veh HLA-DPB1 (11760878_x_at) / RFU SPINT1 (11716480_a_at) / Fold change /veh SPINT1 (11716480_a_at) / RFU GAP43 (11754022_s_at) / Fold change /veh GAP43 (11754022_s_at) / RFU A4GNT (11735810_at) / Fold change /veh A4GNT (11735810_at) / RFU PRB3 (11715151_x_at) / Fold change /veh PRB3 (11715151_x_at) / RFU TUBB4B (11761932_at) / Fold change /veh TUBB4B (11761932_at) / RFU CAPN14 (11732068_a_at) / Fold change /veh CAPN14 (11732068_a_at) / RFU TMCC2 (11721928_a_at) / Fold change /veh TMCC2 (11721928_a_at) / RFU IRGQ (11745062_a_at) / Fold change /veh IRGQ (11745062_a_at) / RFU FAM174B (11720279_a_at) / Fold change /veh FAM174B (11720279_a_at) / RFU TMPRSS4 (11748680_a_at) / Fold change /veh TMPRSS4 (11748680_a_at) / RFU FAM212B (11763350_a_at) / Fold change /veh FAM212B (11763350_a_at) / RFU PLEKHG5 (11743358_a_at) / Fold change /veh PLEKHG5 (11743358_a_at) / RFU ZSCAN30 (11745921_a_at) / Fold change /veh ZSCAN30 (11745921_a_at) / RFU CMKLR1 (11741424_a_at) / Fold change /veh CMKLR1 (11741424_a_at) / RFU LOC101060620 /// MAPK8IP1 (11723275_at) / Fold change /veh LOC101060620 /// MAPK8IP1 (11723275_at) / RFU SPTSSB (11747773_x_at) / Fold change /veh SPTSSB (11747773_x_at) / RFU PRSS12 (11739890_at) / Fold change /veh PRSS12 (11739890_at) / RFU BIN1 (11741810_x_at) / Fold change /veh BIN1 (11741810_x_at) / RFU WNT11 (11732464_a_at) / Fold change /veh WNT11 (11732464_a_at) / RFU C10orf10 (11716521_a_at) / Fold change /veh C10orf10 (11716521_a_at) / RFU C5orf56 (11738089_at) / Fold change /veh C5orf56 (11738089_at) / RFU CYB561 (11721691_x_at) / Fold change /veh CYB561 (11721691_x_at) / RFU ANKRD19P (11752326_a_at) / Fold change /veh ANKRD19P (11752326_a_at) / RFU OR2T12 /// OR2T33 /// OR2T8 (11738714_s_at) / Fold change /veh OR2T12 /// OR2T33 /// OR2T8 (11738714_s_at) / RFU VCAN (11748164_a_at) / Fold change /veh VCAN (11748164_a_at) / RFU JSRP1 (11732532_at) / Fold change /veh JSRP1 (11732532_at) / RFU KRTAP10-11 (11738290_x_at) / Fold change /veh KRTAP10-11 (11738290_x_at) / RFU MYO3A (11730013_a_at) / Fold change /veh MYO3A (11730013_a_at) / RFU EBF3 (11725865_a_at) / Fold change /veh EBF3 (11725865_a_at) / RFU CAMK2N1 (11719241_x_at) / Fold change /veh CAMK2N1 (11719241_x_at) / RFU C5orf56 (11738088_a_at) / Fold change /veh C5orf56 (11738088_a_at) / RFU OLFML3 (11715873_a_at) / Fold change /veh OLFML3 (11715873_a_at) / RFU LOC100653217 /// NTM (11731650_a_at) / Fold change /veh LOC100653217 /// NTM (11731650_a_at) / RFU MAPK11 (11762145_a_at) / Fold change /veh MAPK11 (11762145_a_at) / RFU FIZ1 (11724087_x_at) / Fold change /veh FIZ1 (11724087_x_at) / RFU OASL (11726364_x_at) / Fold change /veh OASL (11726364_x_at) / RFU SOX15 (11748057_x_at) / Fold change /veh SOX15 (11748057_x_at) / RFU CD79A (11719716_a_at) / Fold change /veh CD79A (11719716_a_at) / RFU HIST1H1D (11736915_at) / Fold change /veh HIST1H1D (11736915_at) / RFU CASKIN2 (11723855_a_at) / Fold change /veh CASKIN2 (11723855_a_at) / RFU LOC730098 (11760151_x_at) / Fold change /veh LOC730098 (11760151_x_at) / RFU OR4N2 (11742367_at) / Fold change /veh OR4N2 (11742367_at) / RFU PRRT2 (11749266_a_at) / Fold change /veh PRRT2 (11749266_a_at) / RFU SNX32 (11753110_a_at) / Fold change /veh SNX32 (11753110_a_at) / RFU CDHR5 (11726645_a_at) / Fold change /veh CDHR5 (11726645_a_at) / RFU RCAN1 (11760418_a_at) / Fold change /veh RCAN1 (11760418_a_at) / RFU FAM167A (11723789_a_at) / Fold change /veh FAM167A (11723789_a_at) / RFU FAM26E (11764081_at) / Fold change /veh FAM26E (11764081_at) / RFU ISYNA1 (11749810_s_at) / Fold change /veh ISYNA1 (11749810_s_at) / RFU ACY1 (11761880_at) / Fold change /veh ACY1 (11761880_at) / RFU 11764098_at / Fold change /veh 11764098_at / RFU SAMD14 (11745864_x_at) / Fold change /veh SAMD14 (11745864_x_at) / RFU NPB (11741838_a_at) / Fold change /veh NPB (11741838_a_at) / RFU TMPRSS6 (11731388_a_at) / Fold change /veh TMPRSS6 (11731388_a_at) / RFU KRTAP10-2 (11738614_at) / Fold change /veh KRTAP10-2 (11738614_at) / RFU ARHGAP8 /// PRR5-ARHGAP8 (11727945_x_at) / Fold change /veh ARHGAP8 /// PRR5-ARHGAP8 (11727945_x_at) / RFU KRTAP5-7 /// NADSYN1 (11734609_at) / Fold change /veh KRTAP5-7 /// NADSYN1 (11734609_at) / RFU RASL12 (11751679_a_at) / Fold change /veh RASL12 (11751679_a_at) / RFU CDKN2B (11736163_a_at) / Fold change /veh CDKN2B (11736163_a_at) / RFU PRF1 (11729649_at) / Fold change /veh PRF1 (11729649_at) / RFU, ZNF638 /// ZNF638-IT1 / Fold change vs veh, ZNF638 /// ZNF638-IT1 / RFU, PANK3 / Fold change vs veh, PANK3 / RFU, SH3YL1 / Fold change vs veh, SH3YL1 / RFU, ZEB2 / Fold change vs veh, ZEB2 / RFU, NRIP1 / Fold change vs veh, NRIP1 / RFU, PTTG1IP / Fold change vs veh, PTTG1IP / RFU, CAPN2 / Fold change vs veh, CAPN2 / RFU, MED14 / Fold change vs veh, MED14 / RFU, SNORA58 / Fold change vs veh, SNORA58 / RFU, C1orf63 / Fold change vs veh, C1orf63 / RFU, LRRFIP1 / Fold change vs veh, LRRFIP1 / RFU, NDUFAF7 / Fold change vs veh, NDUFAF7 / RFU, SLC12A2 / Fold change vs veh, SLC12A2 / RFU, IBTK / Fold change vs veh, IBTK / RFU, ESF1 / Fold change vs veh, ESF1 / Fold change vs veh, TMEM50B / RFU, TAOK1 / Fold change vs veh, TAOK1 / RFU, ACBD3 / Fold change vs veh, ACBD3 / RFU, TMA16 / Fold change vs veh, TMA16 / RFU, RWDD3 / Fold change vs veh, RWDD3 / RFU, BCAT1 / Fold change vs veh, BCAT1 / RFU, EDEM3 / Fold change vs veh, EDEM3 / RFU, TMEM33 / Fold change vs veh, TMEM33 / RFU, WDR75 / Fold change vs veh, WDR75 / RFU, AHCTF1 / Fold change vs veh, AHCTF1 / RFU, TFRC / Fold change vs veh, TFRC / RFU, ZDHHC17 / Fold change vs veh, ZDHHC17 / RFU, NOM1 / Fold change vs veh, NOM1 / RFU, ARL8B / Fold change vs veh, ARL8B / RFU, ZBTB11 / Fold change vs veh, ZBTB11 / RFU, TAMM41 / Fold change vs veh, TAMM41 / RFU, KIAA1704 /// LOC100996395 / Fold change vs veh, KIAA1704 /// LOC100996395 / RFU, ING1 / Fold change vs veh, ING1 / RFU, TRMT61B / Fold change vs veh, TRMT61B / RFU, FUBP3 / Fold change vs veh, FUBP3 / RFU, TP53 / Fold change vs veh, TP53 / RFU, TNKS2 / Fold change vs veh, TNKS2 / RFU, ZFP14 / Fold change vs veh, ZFP14 / RFU, ACTR2 / Fold change vs veh, ACTR2 / RFU, PPP3R1 / Fold change vs veh, PPP3R1 / RFU, PIK3R1 / Fold change vs veh, PIK3R1 / RFU, HNRNPA1 / Fold change vs veh, HNRNPA1 / RFU, RNF170 / Fold change vs veh, RNF170 / RFU, ZNF28 / Fold change vs veh, ZNF28 / RFU, RNGTT / Fold change vs veh, RNGTT / RFU, OGT / Fold change vs veh, OGT / RFU, BRD1 / Fold change vs veh, BRD1 / RFU, MARS / Fold change vs veh, MARS / RFU, ZNF655 / Fold change vs veh, ZNF655 / RFU, FAHD1 / Fold change vs veh, FAHD1 / RFU, BDP1 / Fold change vs veh, BDP1 / RFU, LRRCC1 / Fold change vs veh, LRRCC1 / RFU, ARID1A / Fold change vs veh, ARID1A / RFU, ZNF146 / Fold change vs veh, ZNF146 / RFU, ZNF330 / Fold change vs veh, ZNF330 / RFU, GPN3 / Fold change vs veh, GPN3 / RFU, C9orf123 / Fold change vs veh, C9orf123 / RFU, N4BP2L2 / Fold change vs veh, N4BP2L2 / RFU, ARFIP1 / Fold change vs veh, ARFIP1 / RFU, FAM179B / Fold change vs veh, FAM179B / RFU, BCL10 / Fold change vs veh, BCL10 / RFU, UHRF1BP1L / Fold change vs veh, UHRF1BP1L / RFU, BET1 / Fold change vs veh, BET1 / RFU, CNOT2 / Fold change vs veh, CNOT2 / RFU, ZNF268 / Fold change vs veh, ZNF268 / Fold change vs veh, ZNF507 / RFU, DGCR2 / Fold change vs veh, DGCR2 / RFU, WDSUB1 / Fold change vs veh, WDSUB1 / Fold change vs veh, HSP90B1 /// MIR3652 / RFU, ADSS / Fold change vs veh, ADSS / RFU, GK / Fold change vs veh, GK / RFU, ZNF148 / Fold change vs veh, ZNF148 / RFU, TAF9 / Fold change vs veh, TAF9 / RFU, SLC1A5 / Fold change vs veh, SLC1A5 / RFU, SLMO2 / Fold change vs veh, SLMO2 / RFU, ABCC4 / Fold change vs veh, ABCC4 / RFU, LOC101060439 /// RAP1B / Fold change vs veh, LOC101060439 /// RAP1B / RFU, RFX7 / Fold change vs veh, RFX7 / RFU, GTPBP10 / Fold change vs veh, GTPBP10 / RFU, CNEP1R1 / Fold change vs veh, CNEP1R1 / RFU, BIVM-ERCC5 /// ERCC5 / Fold change vs veh, BIVM-ERCC5 /// ERCC5 / RFU, ILF3 / Fold change vs veh, ILF3 / RFU 11762660_at / Fold change /veh 11762660_at / RFU VCAN (11757783_s_at) / Fold change /veh VCAN (11757783_s_at) / RFU DDX43 (11728927_at) / Fold change /veh DDX43 (11728927_at) / RFU KRT8 (11758188_x_at) / Fold change /veh KRT8 (11758188_x_at) / RFU NKD1 (11759106_at) / Fold change /veh NKD1 (11759106_at) / RFU SRD5A1 (11742802_a_at) / Fold change /veh SRD5A1 (11742802_a_at) / RFU TPSAB1 /// TPSB2 (11721975_s_at) / Fold change /veh TPSAB1 /// TPSB2 (11721975_s_at) / RFU GSTM3 (11746129_a_at) / Fold change /veh GSTM3 (11746129_a_at) / RFU IL23R (11737362_x_at) / Fold change /veh IL23R (11737362_x_at) / RFU TMEM51 (11727254_a_at) / Fold change /veh TMEM51 (11727254_a_at) / RFU PIWIL2 (11732686_x_at) / Fold change /veh PIWIL2 (11732686_x_at) / RFU ORM1 (11744905_x_at) / Fold change /veh ORM1 (11744905_x_at) / RFU CCDC152 (11743942_at) / Fold change /veh CCDC152 (11743942_at) / RFU ECM1 (11717891_a_at) / Fold change /veh ECM1 (11717891_a_at) / RFU IL23R (11748794_a_at) / Fold change /veh IL23R (11748794_a_at) / RFU TNFAIP8L3 (11732012_x_at) / Fold change /veh TNFAIP8L3 (11732012_x_at) / RFU MBOAT4 (11741988_at) / Fold change /veh MBOAT4 (11741988_at) / RFU 11764193_at / Fold change /veh 11764193_at / RFU TMEM53 (11763286_at) / Fold change /veh TMEM53 (11763286_at) / RFU MAGEB2 (11727129_at) / Fold change /veh MAGEB2 (11727129_at) / RFU TMEM200A (11744735_a_at) / Fold change /veh TMEM200A (11744735_a_at) / RFU CCDC152 (11751479_a_at) / Fold change /veh CCDC152 (11751479_a_at) / RFU FAM211A (11726209_a_at) / Fold change /veh FAM211A (11726209_a_at) / RFU RGS16 (11746705_a_at) / Fold change /veh RGS16 (11746705_a_at) / RFU VCAN (11755009_s_at) / Fold change /veh VCAN (11755009_s_at) / RFU RHOB (11743442_s_at) / Fold change /veh RHOB (11743442_s_at) / RFU RGS16 (11720943_a_at) / Fold change /veh RGS16 (11720943_a_at) / RFU RGS16 (11720944_at) / Fold change /veh RGS16 (11720944_at) / RFU, VPS4B / Fold change vs veh, VPS4B / RFU, CREB1 / Fold change vs veh, CREB1 / RFU, DNAJC13 / Fold change vs veh, DNAJC13 / RFU, GNAQ / Fold change vs veh, GNAQ / RFU, CDK5R1 / Fold change vs veh, CDK5R1 / RFU, ZRANB3 / Fold change vs veh, ZRANB3 / RFU, CUL4A / Fold change vs veh, CUL4A / RFU, CCNY / Fold change vs veh, CCNY / RFU, UFL1 / Fold change vs veh, UFL1 / RFU, COG3 / Fold change vs veh, COG3 / RFU, DIAPH2 / Fold change vs veh, DIAPH2 / RFU, SKA2 / Fold change vs veh, SKA2 / RFU, AFF3 / Fold change vs veh, AFF3 / RFU, LMF1 / Fold change vs veh, LMF1 / RFU, IPO11 / Fold change vs veh, IPO11 / RFU, DFFB / Fold change vs veh, DFFB / RFU, FOXP1 / Fold change vs veh, FOXP1 / RFU, CARD8 / Fold change vs veh, CARD8 / RFU, STRN3 / Fold change vs veh, STRN3 / RFU, ADK / Fold change vs veh, ADK / RFU, RASSF2 / Fold change vs veh, RASSF2 / RFU, WIPF1 / Fold change vs veh, WIPF1 / RFU, LARP1B / Fold change vs veh, LARP1B / RFU, RASA1 / Fold change vs veh, RASA1 / RFU, RB1 / Fold change vs veh, RB1 / RFU, PPFIA1 / Fold change vs veh, PPFIA1 / RFU, MAT2A / Fold change vs veh, MAT2A / RFU, CCT5 / Fold change vs veh, CCT5 / RFU, WDR92 / Fold change vs veh, WDR92 / RFU, CUX1 / Fold change vs veh, CUX1 / RFU, TTC7A / Fold change vs veh, TTC7A / RFU, TMEM135 / Fold change vs veh, TMEM135 / RFU, DEPTOR / Fold change vs veh, DEPTOR / RFU, CPM / Fold change vs veh, CPM / RFU, DNAJB6 / Fold change vs veh, DNAJB6 / RFU, CACNA2D3 / Fold change vs veh, CACNA2D3 / RFU, DTX4 / Fold change vs veh, DTX4 / RFU, TFCP2 / Fold change vs veh, TFCP2 / RFU, GMCL1 /// GMCL1P1 / Fold change vs veh, GMCL1 /// GMCL1P1 / RFU, AEBP2 / Fold change vs veh, AEBP2 / RFU, SNHG1 /// SNORD22 /// SNORD25 /// SNORD26 /// SNORD27 /// SNORD28 /// SNORD29 /// SNORD31 / Fold change vs veh, SNHG1 /// SNORD22 /// SNORD25 /// SNORD26 /// SNORD27 /// SNORD28 /// SNORD29 /// SNORD31 / Fold change (Aza/veh), C12orf56 (ProbeSet 11735607_a_at) / Fold change (ACY-1035/veh), C12orf56 (ProbeSet 11735607_a_at) / Fold change (Aza/veh), FGFR1OP (ProbeSet 11751329_s_at) / Fold change (ACY-1035/veh), FGFR1OP (ProbeSet 11751329_s_at) / Fold change (Aza/veh), VPS36 (ProbeSet 11739960_a_at) / Fold change (ACY-1035/veh), VPS36 (ProbeSet 11739960_a_at) / RFU SYPL1 (11715823_x_at) / Fold change /veh SYPL1 (11715823_x_at) / RFU IGFBP7 (11715501_s_at) / Fold change /veh IGFBP7 (11715501_s_at) / RFU REEP3 (11722064_at) / Fold change /veh REEP3 (11722064_at) / RFU IGLL1 (11728026_x_at) / Fold change /veh IGLL1 (11728026_x_at): dose or concentration left out as unconfirmed
# Details: MV-4-11 cells, 48 hours
smiles,measurement,value
Nc1ccc(-c2cccs2)cc1NC(=O)c1ccc2c(c1)cc(C1CC1)n2CCN1CCOCC1 [ACY-1035],Fold change /veh LOC101060620 /// MAPK8IP1 (11723275_at),0.98

# — paper PMC5218480 (PLoS ONE, 2017)
